{"source": "ChEMBL document CHEMBL2046410", "about": "“Computational design and discovery of \"minimally structured\" hERG blockers” (J Med Chem, 2012)", "molecular_target": "Voltage-gated inwardly rectifying potassium channel KCNH2 (Homo sapiens, UniProt Q12809)", "sequence (Q12809 whole entry)": "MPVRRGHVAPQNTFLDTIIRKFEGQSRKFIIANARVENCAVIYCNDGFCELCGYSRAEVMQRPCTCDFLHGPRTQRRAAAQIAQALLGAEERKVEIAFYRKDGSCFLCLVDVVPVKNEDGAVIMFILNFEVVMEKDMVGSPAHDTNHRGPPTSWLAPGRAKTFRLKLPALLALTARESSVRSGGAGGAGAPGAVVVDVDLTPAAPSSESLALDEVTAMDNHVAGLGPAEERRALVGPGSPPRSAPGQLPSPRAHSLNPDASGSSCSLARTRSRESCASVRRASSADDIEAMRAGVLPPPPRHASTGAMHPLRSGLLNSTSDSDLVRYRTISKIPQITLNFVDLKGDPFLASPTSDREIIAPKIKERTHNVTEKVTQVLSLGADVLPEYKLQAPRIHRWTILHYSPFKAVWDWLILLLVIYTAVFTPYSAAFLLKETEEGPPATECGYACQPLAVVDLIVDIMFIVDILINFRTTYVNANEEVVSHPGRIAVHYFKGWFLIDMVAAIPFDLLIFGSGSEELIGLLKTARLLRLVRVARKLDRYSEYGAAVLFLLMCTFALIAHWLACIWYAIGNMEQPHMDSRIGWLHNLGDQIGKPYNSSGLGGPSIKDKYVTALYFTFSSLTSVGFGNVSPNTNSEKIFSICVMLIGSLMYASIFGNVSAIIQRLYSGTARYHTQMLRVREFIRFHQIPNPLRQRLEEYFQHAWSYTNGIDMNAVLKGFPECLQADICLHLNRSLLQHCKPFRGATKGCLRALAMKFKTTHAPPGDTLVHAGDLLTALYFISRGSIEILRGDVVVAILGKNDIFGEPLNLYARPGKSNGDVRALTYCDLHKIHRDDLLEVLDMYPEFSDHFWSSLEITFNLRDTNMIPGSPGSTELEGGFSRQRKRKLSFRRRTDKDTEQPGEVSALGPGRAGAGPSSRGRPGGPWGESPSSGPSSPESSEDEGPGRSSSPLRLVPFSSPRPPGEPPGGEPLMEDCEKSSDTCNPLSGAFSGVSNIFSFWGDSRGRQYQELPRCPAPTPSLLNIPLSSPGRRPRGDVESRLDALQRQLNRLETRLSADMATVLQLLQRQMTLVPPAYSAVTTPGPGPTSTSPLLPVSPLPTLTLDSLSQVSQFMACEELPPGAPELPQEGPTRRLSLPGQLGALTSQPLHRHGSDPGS", "assay": "Inhibition of human ERG expressed in HEK cells by patch clamp assay", "type": "cell-based, HEK293", "conditions": "for pIC50: read-out: IC50", "note": "pIC50: −log10 of the molar value."}
{"smiles": "c1ccc(CCNCCC(c2ccccc2)c2ccccc2)cc1", "values": [{"measurement": "pIC50", "value": 5.55}, {"measurement": "IC50", "setting": "read-out: pIC50 (converted)", "value": 3160, "unit": "nM"}]}
{"smiles": "c1ccc(CCCNCCC(c2ccccc2)c2ccccc2)cc1", "values": [{"measurement": "pIC50", "value": 7.77}]}
{"smiles": "c1ccc(CCCNCCN(c2ccccc2)c2ccccc2)cc1", "values": [{"measurement": "pIC50", "value": 6.24}]}
{"smiles": "Fc1ccc(N(CCNCCCc2ccccc2)c2ccc(F)cc2)cc1", "values": [{"measurement": "pIC50", "value": 8.62}]}
{"smiles": "O=C(Cc1ccccc1)NCCN(c1ccccc1)c1ccccc1", "values": [{"measurement": "pIC50", "value": 5.10}]}
{"smiles": "O=C(CCc1ccccc1)NCCN(c1ccc(F)cc1)c1ccc(F)cc1", "values": [{"measurement": "pIC50", "value": 6.72}]}
